# ChEMBL document CHEMBL4130367, “Click chemistry-based synthesis and anticancer activity evaluation of novel C-14 1,2,3-triazole dehydroabietic acid hybrids” (Eur J Med Chem, 2017)
# Calls of active or inactive are those of the source. The calls are words filed in the database; no cut-off is given here.
# Columns and labels:
# [1] = Metabolic stability in dog liver microsomes assessed as parent compound remaining after 30 mins in presence of NADPH by HPLC analysis; assay type: ADME, Canis lupus familiaris, microsome; conditions: read-out: Stability
# MDA-MB-231 [2] = assay: Induction of apoptosis in human MDA-MB-231 cells assessed as dead cells at 0.1 uM after 24 hrs by Annexin V-FITC/propidium iodide staining based flow cytometry (reference value: 2.15%); assay type: functional
# MDA-MB-231 [3] = assay: Induction of apoptosis in human MDA-MB-231 cells assessed as late apoptotic cells at 0.1 uM after 24 hrs by Annexin V-FITC/propidium iodide staining based flow cytometry (reference value: 2.97%); assay type: functional
# [4] = Metabolic stability in mouse liver microsomes assessed as parent compound remaining after 60 mins in presence of NADPH by HPLC analysis; assay type: ADME, microsome; conditions: read-out: Stability
# HCT-116 = assay: Cytotoxicity against human HCT116 cells assessed as reduction in cell viability after 72 hrs by MTT assay; assay type: functional, cell-based; conditions: HCT-116, 72 h
# [5] = Selectivity index, ratio of IC50 for HFF cells to IC50 for human SKBR3 cells; assay type: toxicity; conditions: HFF cells versus SKBR3 cells, read-out: Ratio IC50
# MCF7 = assay: cells; conditions: Homo sapiens, MCF7, 72 h
# Description: Cytotoxicity against human MCF7 cells assessed as reduction in cell viability after 72 hrs by MTT assay
# [6] = Selectivity index, ratio of IC50 for human HL7702 cells to IC50 for human U251 cells; assay type: toxicity; conditions: HL7702 cells versus U251 cells, read-out: Ratio IC50
# A549 = assay: Induction of apoptosis in human A549 cells assessed as genomic DNA fragmentation at 2.5 uM after 24 hrs by DAPI/TUNEL staining based spectrofluorometric method; assay type: functional, cell-based
# LNCaP = assay: Cytotoxicity against human LNCAP cells assessed as reduction in cell viability after 72 hrs by MTT assay; assay type: functional, cell-based
# [7] = Metabolic stability in rat liver microsomes assessed as parent compound remaining after 120 mins in presence of NADPH by HPLC analysis; assay type: ADME, microsome; conditions: read-out: Stability
# MDA-MB-231 [8] = assay: Induction of apoptosis in human MDA-MB-231 cells assessed as late apoptotic cells at 1 uM after 24 hrs by Annexin V-FITC/propidium iodide staining based flow cytometry (reference value: 2.97%); assay type: functional
# [9] = Metabolic stability in rat liver microsomes assessed as parent compound remaining after 30 mins in presence of NADPH by HPLC analysis; assay type: ADME, microsome; conditions: read-out: Stability
# [10] = Selectivity index, ratio of IC50 for human HL7702 cells to IC50 for human SKBR3 cells; assay type: toxicity; conditions: HL7702 cells versus SKBR3 cells, read-out: Ratio IC50
# MDA-MB-231 [11] = assay: Induction of apoptosis in human MDA-MB-231 cells assessed as early apoptotic cells at 1 uM after 24 hrs by Annexin V-FITC/propidium iodide staining based flow cytometry (reference value: 2.33%); assay type: functional
# [12] = Metabolic stability in dog liver microsomes assessed as parent compound remaining after 90 mins in presence of NADPH by HPLC analysis; assay type: ADME, Canis lupus familiaris, microsome; conditions: read-out: Stability
compound,measurement,setting,value
COC(=O)[C@]1(C)CCC[C@]2(C)c3ccc(C(C)C)c(NC(=O)Cn4cc(-c5cccc(NC(=O)OC(C)(C)C)c5)nn4)c3CC[C@@H]12,remaining at 0.5 h,[1],77.3%
same,Activity,MDA-MB-231 [2],7.57%
same,Activity,MDA-MB-231 [3],9.91%
same,remaining at 1 h,[4],72.6%
same,IC50,HCT-116,1000 nM
same,selectivity ratio,[5],5.8
same,IC50,MCF7,800 nM
same,selectivity ratio,[6],4.5
same,Activity,A549,Active
same,IC50,LNCaP,600 nM
same,remaining at 2 h,[7],58.4%
same,Activity,MDA-MB-231 [8],16.75%
same,remaining at 0.5 h,[9],85.4%
same,selectivity ratio,[10],8.4
same,Activity,MDA-MB-231 [11],6.13%
same,remaining at 1.5 h,[12],31.6%
